{
  "source": "patent US5753681A",
  "about": "“Treatment and prophylaxis of pancreatitis” (Sankyo Company, Limited, priority 1996, dated 1998)",
  "test_system": "plasma lipase",
  "assay": "Effect of long term treatment on plasma lipase activity",
  "assay_type": "in vivo, male WBN/Kob rats",
  "settings": "9.5 months; for Plasma Lipase Activity: control 33.7 ± 7.8",
  "from_the_text": "In pancreatitis, secretion of digestive enzymes is impaired and delivery of digestive enzymes to the duodenum is reduced. In addition, digestive enzymes leak into the blood and their level in the blood and urine increase. Accordingly, the extent of pancreatitis can be estimated by measuring the amount of digestive enzymes which have leaked into the blood (Methods of Clinical Examination: Kinbara Publisher).\nThe measurement of digestive enzymes may also be carried out by conventional procedures. For example, after the test drug mixed into powdered feed has been administered to male WBN/Kob rats for a definite period, the blood may be collected and the lipase activity (one of the digestive enzymes) in the plasma may be measured.\nThe test animals were male WBN/Kob rats. Each group of test animals contained 6 animals, and the animals were used for the experiment when they had reached 12 weeks old. The animals were fed with powdered feed F2 mixed with 0.2% or 0.05% of troglitazone for 9.5 months. These groups are hereinafter referred to as \"the 0.2% group\" and \"the 0.05% group\", respectively. The average doses of the compound during this period were 120 mg/kg/day and 30 mg/kg/day, respectively. Meanwhile, another six rats (control group) were fed with the powdered feed F2 only. After the rats had been fed with the feeds for 9.5 months, each rat was decapitated and its blood was collected. The blood serum was separated and the plasma lipase level was measured using an autoanalyser (type 7250, manufactured by Hitachi Ltd.).",
  "data": [
    {"smiles": "Cc1c(C)c2c(c(C)c1O)CCC(C)(COc1ccc(CC3SC(=O)NC3=O)cc1)O2", "note": "(stereo not drawn) [troglitazone, 5-[4-(6-Hydroxy-2,5,7,8-tetramethylchroman-2-ylmethoxy)benzyl]thiazolidine-2,4-dione]", "values": [
      {"measurement": "Plasma Lipase Activity", "setting": "0.05% group, 30 mg/kg/day in feed", "result": "17.5 ± 2.2", "unit": "IU/l"},
      {"measurement": "Plasma Lipase Activity", "setting": "0.2% group, 120 mg/kg/day in feed, *p < 0.05", "result": "13.2 ± 1.0", "unit": "IU/l"},
      {"measurement": "Plasma lipase activity (in words)", "setting": "both the 0.2% group and the 0.05% group, vs. control group", "result": "significant decrease"}
    ]}
  ]
}
